According to patent publication US9834564B2, “Substituted quinolines as PDE-10 inhibitors” (priority 2010, dated 2017):

These compounds were tested against recombinant human PDE-10 enzyme (PDE-10A) (Homo sapiens (Human), UniProt Q9Y233) (assay: IMAP PDE Fluorescence Polarization assay, human PDE-10 inhibition (enzyme assay)). Conditions: not given.
Chain of recombinant human PDE-10 enzyme (PDE-10A) (Q9Y233 whole entry): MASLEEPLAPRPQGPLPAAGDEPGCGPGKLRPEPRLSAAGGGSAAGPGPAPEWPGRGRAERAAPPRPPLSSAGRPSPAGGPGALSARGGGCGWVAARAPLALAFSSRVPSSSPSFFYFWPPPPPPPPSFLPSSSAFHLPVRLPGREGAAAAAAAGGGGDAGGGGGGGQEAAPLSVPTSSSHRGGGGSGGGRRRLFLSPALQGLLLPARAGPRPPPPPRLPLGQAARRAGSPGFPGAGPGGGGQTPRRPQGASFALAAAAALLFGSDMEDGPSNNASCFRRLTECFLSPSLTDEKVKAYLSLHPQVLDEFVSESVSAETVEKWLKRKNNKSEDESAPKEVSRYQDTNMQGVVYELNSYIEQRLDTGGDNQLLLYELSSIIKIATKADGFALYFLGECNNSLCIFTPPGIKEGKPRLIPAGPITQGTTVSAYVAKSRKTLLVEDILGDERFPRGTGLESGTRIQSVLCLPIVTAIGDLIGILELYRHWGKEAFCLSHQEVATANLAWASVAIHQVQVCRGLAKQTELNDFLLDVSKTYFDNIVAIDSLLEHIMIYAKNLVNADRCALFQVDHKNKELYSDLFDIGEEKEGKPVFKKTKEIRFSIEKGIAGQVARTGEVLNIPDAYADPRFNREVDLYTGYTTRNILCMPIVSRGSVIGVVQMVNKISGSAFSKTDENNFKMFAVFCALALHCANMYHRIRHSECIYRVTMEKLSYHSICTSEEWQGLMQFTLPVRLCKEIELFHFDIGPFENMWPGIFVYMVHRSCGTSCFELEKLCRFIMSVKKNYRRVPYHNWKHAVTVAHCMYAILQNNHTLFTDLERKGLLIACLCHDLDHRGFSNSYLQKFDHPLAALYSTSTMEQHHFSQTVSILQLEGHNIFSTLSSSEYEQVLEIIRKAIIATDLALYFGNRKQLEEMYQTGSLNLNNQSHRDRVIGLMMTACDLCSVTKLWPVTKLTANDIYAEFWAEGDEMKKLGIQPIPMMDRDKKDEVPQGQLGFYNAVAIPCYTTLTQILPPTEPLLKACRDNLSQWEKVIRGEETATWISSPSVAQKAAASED
Type: biochemical
Description: In one embodiment, the compounds provided herein were assayed for their ability to inhibit human PDE-10A. In one embodiment, the activities of the compounds were determined using the Molecular Devices IMAP PDE Fluorescence Polarization assay using recombinant human PDE-10 enzyme expressed in a baculoviral system. Briefly, 10 μL of a compound (0.2 nM-20 μM) was added to either a 96-well half area black plate or a 384-well black plate along with 10 μL of Fluorescein-labeled cAMP/cGMP substrate as per manufacturer's instructions and 10 μL of PDE enzyme (activity 0.1 U). Following a 40-minute incubation at 37° C., 60 μL of IMAP binding reagent was added. […] The data was analyzed using Prism Software (GraphPad Inc, San Diego, Calif.).
In the case of Cn1c(/C=C/c2nc(-c3ccccc3)c[nH]2)nc2ccccc2c1=O [Compound 9], the IC50 is reported as greater than 10 µM.

Same assay, conditions: recombinant human PDE-10, fluorescein-labeled cAMP/cGMP substrate, 40 min at 37° C.
With O=c1[nH]c2ccccc2nc1CCc1nc(-c2ccccc2)c[nH]1 [Compound 2] the IC50 was less than 0.5 µM. With O=c1[nH]c(CCc2nc(-c3ccccc3)c[nH]2)nc2cc3ccccc3cc12 [Compound 6] the IC50 was greater than 10 µM. In the case of COc1cc2nc(CCc3nc(-c4ccccc4)c[nH]3)[nH]c(=O)c2cc1OC [Compound 7], the IC50 is reported as greater than 10 µM. Cn1c(CCc2nc(-c3ccccc3)c[nH]2)nc2ccccc2c1=O [Compound 10] was tested, and the IC50 was 1 to 10 µM. With c1ccc(-c2c[nH]c(CCc3ncc4ccccc4n3)n2)cc1 [Compound 13] the IC50 was less than 0.5 µM. O=c1[nH]c(CCc2cc(-c3ccccc3)n[nH]2)nc2ccccc12 [Compound 14] gave an IC50 of 1 to 10 µM. Work on Cn1nc(-c2ccccc2)cc1CCc1nc2ccccc2c(=O)[nH]1 [Compound 15] yielded an IC50 of 1 to 10 µM. Work on Cn1cc(-c2ccccc2)nc1CCc1ncc2ccccc2n1 [Compound 18] yielded an IC50 of less than 0.5 µM. With O=c1[nH]c(CCc2nc3ccccc3[nH]2)nc2ccccc12 [Compound 21] the IC50 was 1 to 10 µM. For O=c1[nH]c(/C=C/c2nc3ccccc3[nH]2)nc2ccccc12 [Compound 22], the IC50 was greater than 10 µM. Work on Cn1c(/C=C/c2nc3ccccc3c(=O)[nH]2)nc2ccccc21 [Compound 23] yielded an IC50 of 1 to 10 µM. Compound Cn1c(CCc2nc3ccccc3c(=O)[nH]2)nc2ccccc21 [Compound 24] has an IC50 greater than 10 µM. Cn1c(CCc2ccc3ccccc3n2)nc2ccccc21 [Compound 25] gave an IC50 of 1 to 10 µM. In the case of Cn1c(CCc2cnc3ccccc3n2)nc2ccccc21 [Compound 26], the IC50 is reported as 1 to 10 µM. O=c1[nH]c(CCn2cnc(-c3ccccc3)c2)nc2ccccc12 [Compound 27] gave an IC50 of 1 to 10 µM. C(=C\c1cccs1)/c1nc(-c2ccccc2)c[nH]1 [Compound 28] gave an IC50 greater than 10 µM. c1ccc(-c2c[nH]c(CCc3cccs3)n2)cc1 [Compound 29] showed an IC50 greater than 10 µM. C(=C\c1nc(-c2ccccc2)c[nH]1)/c1ccccn1 [Compound 32] showed an IC50 greater than 10 µM. In the case of c1ccc(-c2c[nH]c(CCc3ccccn3)n2)cc1 [Compound 33], the IC50 is reported as greater than 10 µM. Compound c1ccc(-c2c[nH]c(CCc3ccc4ccccc4c3)n2)cc1 [Compound 35] has an IC50 greater than 10 µM. Compound O=c1[nH]c(CCc2ccc(-c3ccccc3)s2)nc2ccccc12 [Compound 37] has an IC50 greater than 10 µM. O=c1[nH]c(/C=C/c2ccc(-c3ccccc3)s2)nc2ccccc12 [Compound 38] gave an IC50 greater than 10 µM. For Cn1cc(-c2ccncc2)nc1CCc1ccc2ccccc2n1 [Compound 41], the IC50 was 1 to 10 µM. Compound Cn1cc(-c2cccc(F)c2F)nc1CCc1ccc2ccccc2n1 [Compound 44] has an IC50 of 0.5 to 1 µM. Cn1cc(-c2ccncc2)nc1CCc1cnc2ccccc2n1 [Compound 47] gave an IC50 greater than 10 µM. O=c1[nH]c(CCc2nc(-c3cc4ccccc4o3)c[nH]2)nc2ccccc12 [Compound 53] showed an IC50 of 1 to 10 µM. Compound O=c1[nH]c(CCc2nc(-c3ccc(Cl)cc3)c[nH]2)nc2ccccc12 [Compound 54] has an IC50 of 1 to 10 µM. O=c1[nH]c(CCc2nc(-c3cccc4ccccc34)c[nH]2)nc2ccccc12 [Compound 55] showed an IC50 of 1 to 10 µM. Work on O=c1[nH]c(CCc2nc(-c3ccccc3C(F)(F)F)c[nH]2)nc2ccccc12 [Compound 62] yielded an IC50 of 1 to 10 µM. Work on O=c1[nH]c(CCc2nc(-c3ccc(-c4ccccc4)cc3)c[nH]2)nc2ccccc12 [Compound 63] yielded an IC50 greater than 10 µM. With c1coc(-c2c[nH]c(CCc3ccc4ccccc4n3)n2)c1 [Compound 66] the IC50 was 0.5 to 1 µM. With c1ccc2nc(CCc3nc(-c4ccncc4)c[nH]3)ccc2c1 [Compound 68] the IC50 was 1 to 10 µM. Work on Fc1cccc(-c2c[nH]c(CCc3ccc4ccccc4n3)n2)c1F [Compound 71] yielded an IC50 of 0.5 to 1 µM. c1ccc2nc(CCc3nc(-c4ccncc4)c[nH]3)cnc2c1 [Compound 74] gave an IC50 of 1 to 10 µM. Work on c1cncc(-c2c[nH]c(CCc3cnc4ccccc4n3)n2)c1 [Compound 78] yielded an IC50 of less than 0.5 µM. c1ccc(-c2ncc(CCc3cnc4ccccc4n3)o2)cc1 [Compound 80] showed an IC50 greater than 10 µM. In the case of c1ccc(-c2cccc(CCc3cnc4ccccc4n3)n2)cc1 [Compound 81], the IC50 is reported as greater than 10 µM. Cn1c(CCc2cnc3ccccc3n2)nc2ccc3ncccc3c21 [Compound 83] showed an IC50 of 1 to 10 µM. Compound Cn1c(CCc2cnc3ccccc3n2)nc2c3cccnc3ccc21 [Compound 84] has an IC50 of less than 0.5 µM. Compound Cn1c(CCc2ccc3ccccc3n2)nc2c3cccnc3ccc21 [Compound 85] has an IC50 of less than 0.5 µM. For c1ccc2nc(CCc3nc4c(ccc5ncccc54)[nH]3)ccc2c1 [Compound 86], the IC50 was less than 0.5 µM. For Cc1ccc(C)c2nc(CCc3nc4c(ccc5ncccc54)[nH]3)cnc12 [Compound 87], the IC50 was less than 0.5 µM. Cc1ccc(C)c2nc(CCc3nc4c5cccnc5ccc4n3C)cnc12 [Compound 88] gave an IC50 of less than 0.5 µM. Compound Cc1ccc(C)c2nc(CCc3nc4ccc5ncccc5c4n3C)cnc12 [Compound 89] has an IC50 of less than 0.5 µM. Compound Cn1c(CCc2ccc3ccccc3n2)nc2c3ccccc3ccc21 [Compound 90] has an IC50 of less than 0.5 µM. Cn1c(CCc2ccc3ccccc3n2)nc2ccc3ccccc3c21 [Compound 91] was tested, and the IC50 was 1 to 10 µM. In the case of COc1cc2nc(CCc3cnc4ccccc4n3)[nH]c2cc1OC [Compound 96], the IC50 is reported as 1 to 10 µM. For c1ccc2nc(CCc3nc4cc5c(cc4[nH]3)OCO5)cnc2c1 [Compound 98], the IC50 was 1 to 10 µM. Compound Oc1cccc2nc(CCc3cnc4ccccc4n3)[nH]c12 [Compound 99] has an IC50 of 0.5 to 1 µM. CC(C)(C)c1ccc2nc(CCc3cnc4ccccc4n3)[nH]c2c1 [Compound 100] gave an IC50 of 1 to 10 µM. In the case of Fc1cc2[nH]c(CCc3cnc4ccccc4n3)nc2cc1Cl [Compound 101], the IC50 is reported as 0.5 to 1 µM. For FC(F)(F)c1ccc2[nH]c(CCc3cnc4ccccc4n3)nc2c1 [Compound 104], the IC50 was 1 to 10 µM. Compound FC(F)(F)Oc1ccc2[nH]c(CCc3cnc4ccccc4n3)nc2c1 [Compound 105] has an IC50 of 1 to 10 µM. For Cc1nc2ccccc2nc1CCc1nc2ccccc2[nH]1 [Compound 106], the IC50 was 0.5 to 1 µM. With c1ccc2nc(CCc3nc4ccccc4o3)cnc2c1 [Compound 107] the IC50 was greater than 10 µM. c1ccc(-c2csc(CCc3cnc4ccccc4n3)n2)cc1 [Compound 108] gave an IC50 of less than 0.5 µM. In the case of O=c1[nH]c(CCc2nc3ccccc3o2)nc2ccccc12 [Compound 109], the IC50 is reported as greater than 10 µM. Work on O=c1[nH]c(CCc2nc(-c3ccccc3)c(-c3ccccc3)o2)nc2ccccc12 [Compound 111] yielded an IC50 of 1 to 10 µM. O=c1[nH]c(CCc2nc3ccccc3s2)nc2ccccc12 [Compound 112] was tested, and the IC50 was greater than 10 µM. With O=c1[nH]c(CCc2cc(-c3ccccc3)no2)nc2ccccc12 [Compound 113] the IC50 was greater than 10 µM. In the case of c1ccc(-c2nc(CCc3cnc4ccccc4n3)n3c2CCCC3)cc1 [Compound 114], the IC50 is reported as less than 0.5 µM. In the case of O=c1[nH]c(CCc2nc(-c3ccccc3)cs2)nc2ccccc12 [Compound 116], the IC50 is reported as less than 0.5 µM. c1ccc2nc(CCc3nc4ccccc4s3)cnc2c1 [Compound 117] gave an IC50 of 1 to 10 µM. Compound c1ccc2nc(CCc3cnc4ccccc4n3)cnc2c1 [Compound 118] has an IC50 of 1 to 10 µM. c1ccc2nc(CCc3cn4ccccc4n3)cnc2c1 [Compound 119] showed an IC50 of 1 to 10 µM. c1ccc(-c2c[nH]c(CNc3cnc4ccccc4n3)n2)cc1 [Compound 121] gave an IC50 of 1 to 10 µM. Compound c1ccc(-c2c[nH]c(SCc3cnc4ccccc4n3)n2)cc1 [Compound 122] has an IC50 greater than 10 µM. In the case of Cc1cnc(C)n2nc(CCc3ccc4ccccc4n3)nc12 [Compound 126, 2-(2-(5,8-Dimethyl-[1,2,4]triazolo[1,5-c]pyrimidin-2-yl)ethyl)quinoline], the IC50 is reported as less than 0.5 µM.
